Data: PMC6689899, “An essential bifunctional enzyme in Mycobacterium tuberculosis for itaconate dissimilation and leucine catabolism” (Proceedings of the National Academy of Sciences of the …, 2019)

How the values were obtained:
Rv2498c = biological target: T1, Rv2498c (Mycobacterium tuberculosis, UniProt P9WPE1)
T1 construct: gene citE

[1] = test system: CC(=O)SCCNC(=O)CCNC(=O)[C@H](O)C(C)(C)COP(=O)(O)OP(=O)(O)OC[C@H]1O[C@@H](n2cnc3c(N)ncnc32)[C@H](O)[C@@H]1OP(=O)(O)O; test: purified protein

T1 sequence (P9WPE1 whole entry): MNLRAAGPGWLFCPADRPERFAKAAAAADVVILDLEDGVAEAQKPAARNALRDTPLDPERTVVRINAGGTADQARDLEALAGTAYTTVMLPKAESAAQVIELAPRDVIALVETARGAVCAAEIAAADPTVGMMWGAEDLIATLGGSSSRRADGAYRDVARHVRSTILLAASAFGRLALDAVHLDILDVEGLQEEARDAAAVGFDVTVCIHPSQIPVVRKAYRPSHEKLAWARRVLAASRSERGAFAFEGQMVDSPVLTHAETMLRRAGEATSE

Compound	X-ray crystal structure (Rv2498c)	Km [1]	kcat/Km [1]
CC(=O)CC(=O)O [acetoacetate]	complexes with (S)-citramalyl-CoA (PDB ID code 6AQ4) and with acetoacetate:CoA (PDB ID code 6AS5)	–	–
CC(C)(COP(=O)(O)OP(=O)(O)OC[C@H]1O[C@@H](n2cnc3c(N)ncnc32)[C@H](O)[C@@H]1OP(=O)(O)O)[C@@H](O)C(=O)NCCC(=O)NCCS [CoA]	complexes with (S)-citramalyl-CoA (PDB ID code 6AQ4) and with acetoacetate:CoA (PDB ID code 6AS5)	–	–
Rv1837c (Mycobacterium tuberculosis H37Rv)	–	45 ± 9 µM	1.7e+06 M⁻¹ s⁻¹
